Patent publication US7097854B2, “Amino alcohol derivatives, process for their production and pharmaceutical preparations and reagents containing these compounds” (MediGene Oncology GmbH, priority 1996, dated 2006)

Assays:
Calu cells = test: Transfection with pCMV-CAT, CAT-Elisa, Calu cells; format: cell-based, human; conditions: relative to DOTAP = 1, pCMV-CAT plasmid
Text: (§1) The testing of DOTAP or the compounds of the invention comprises transfection of the test cells, protein determination by means of the BCA method (Pierce) and carrying out a CAT Elisa and these are described here using DOTAP (Boehringer Mannheim) as an example. After ultrasonication the cationic lipid DOTAP forms unilamellar vesicles (liposomes) in aqueous solution which spontaneously form stable complexes with the DNA (pCMV-CAT). These complexes adhere to the cell surface, fuse with the cell membrane and pCMV-CAT is released into the cytoplasm. The transiently expressed CAT is detected in the cell lysate.
CALU 1, human cancer epithelial cell line from the lung, ECACC 93120818 or another suitable test cell line
(§2) The composition of the test medium used for the respective cell line corresponds with that of the respective culture medium, only the content of FCS is reduced by 50% (only 5% FCS instead of 10%). […]
(§3) The CAT (chloroamphenicol acetyl transferase)-Elisa serves to quantitatively determine the CAT expression in eukaryotic cells after transfection with a plasmid that contains CAT as the reporter gene. […] Anti-CAT-DIG is detected in the third step by a peroxidase-labelled antibody against digoxigenin (Anti-DIG-POD) and visualized in a subsequent substrate reaction. […]
(§4) The microtitre plate is measured at 405 nm and a reference wavelength of 492 nm with an Elisa reader.

HeLa cells = test: Transfection with pCMV-CAT, CAT-Elisa, HeLa cells; format: cell-based, human; conditions: relative to DOTAP = 1, pCMV-CAT plasmid
Text: as §1
HeLa, human cancer epithelial cell line from the cervix, ATCC CCL 2
as §2, §3, §4

melting point	SMILES	relative transfection efficiency in a CAT-Assay (DOTAP = 1) (Calu cells)	relative transfection efficiency in a CAT-Assay (DOTAP = 1) (HeLa cells)
245 to 246 °C	CCCCCCCCCCCC(=O)OCCN(CCCNCCCN)CCOC(=O)CCCCCCCCCCC.Cl	–	–
–	CCCCCCCCCCCCCC(=O)OCCN(CCOC(=O)CCCCCCCCCCCCC)CC1CCN(CCCN(C)C)CC1 [Example 34, Tetradecanoic acid-2-{(2-tetradecanoyloxy-ethyl)-[1-(3-dimethylamino-propyl)-piperidin-4-yl-methyl]-amino}-ethyl ester]	3.9	3.2
–	CCCCCCCCCCCCCC(=O)OCCN(CCCCNCCCN)CCOC(=O)CCCCCCCCCCCCC [Example 60, Tetradecanoic acid-2-{[4-(3-amino-propylamino)-butyl]-(2-tetradecanoyloxy-ethyl)-amino}-ethyl ester]	3.4	3.2
